Assays:
[1] = system: children and young adults with severe, childhood onset treatment-resistant epilepsy (TRE); assay: Principal component analysis of QOLCE survey data, open label (expanded access) study of CBD; assay type: in vivo, human
Experimental: PCA is a useful tool to visualise relatedness between populations of data and was used in the present example to determine the symptom domains that were improved during an open label study of cannabidiol (CBD) in patients with treatment resistant epilepsy.
(§1) Children and young adults with severe, childhood onset treatment-resistant epilepsy (TRE) were tested with a highly purified extract of cannabidiol (CBD) obtained from a cannabis plant. The participants in the study were part of an expanded access compassionate use program for CBD.
(§2) All patients entered a baseline period of 4 weeks when parents/caregivers kept prospective seizure diaries, noting all countable motor seizure types.
(§3) The patients then received a highly purified CBD extract (greater than 98% CBD w/w) in sesame oil, of known and constant composition, at a dose of 5 mg/kg/day in addition to their baseline anti-epileptic drug (AED) regimen.
(§4) Laboratory testing for hematologic, liver, kidney function, and concomitant AED levels was performed at baseline, and at regular intervals throughout the 12 weeks of the study.
The Quality of Life in Childhood Epilepsy (QOLCE) survey was used to measure multiple QOL domains. […] The QOLCE questionnaire assessed 91 items divided into five sub-domains: physical function; cognitive function; emotional well-being; social function and behaviour. General health was also recorded. […]

[2] = system: patients with Lennox-Gastaut syndrome; assay: Biostatistical analysis of QOLCE subscale scores versus placebo, randomised controlled trial; assay type: in vivo, human; set-up: key to Biostatistical analysis of QOL subscale score versus placebo: ↔: no change (indicated by); ↑: a difference of greater than 10 points between medians (indicated by t); this change was statistically significant (indicated by *); settings: 20 mg/kg/day
From the text: The following example uses biostatistical analysis to look for trends in QOL data collected in a randomised controlled trial of cannabidiol in patients with Lennox-Gastaut syndrome.
(§5) This study was a 1:1 randomised, double-blind, 14-week comparison of cannabidiol oral solution (CBD-OS) versus placebo. The treatment period consisted of a two-week titration period followed by a 12-week maintenance period. The treatment period was followed by a 10-day taper period and a four-week follow-up period. The study aimed to determine the efficacy, safety and tolerability of 20 mg/kg/day cannabidiol compared with placebo.
The Quality of Life in Childhood Epilepsy (QOLCE) survey was used to measure multiple QOL domains. Caregivers completed the survey at baseline and after the 12 weeks of treatment. The QOLCE questionnaire assessed 91 items divided into five sub-domains: physical function; cognitive function; emotional well-being; social function and behaviour. General health was also recorded.
Table 6 below details the areas where there no change (indicated by or a difference of greater than 10 points between medians (indicated by t), and whether this change was statistically significant (indicated by *).

[3] = system: paediatric patients with epilepsy; settings: care-giver-reported, 12 weeks open label; cited from earlier work
[4] = system: patients suffering from epilepsy syndromes (childhood onset treatment-resistant epilepsy); assay: Case study analysis of quality of life measures, open label study (expanded access programme); assay type: in vivo, human
Experimental: The present example provides further data on additional epilepsy syndromes which were studied as part of the expanded access programme described in Example 1.
as §1, §2, §3, §4
Table 7 below details the results obtained at the end of the study period (after between 12 and 108 weeks) from patients suffering from epilepsy syndromes in an open label study.

[5] = system: epileptic male Wistar rats (RISE-SRS); settings: shown previously; cited from earlier work
[6] = system: children and young adults with treatment resistant epilepsy associated with Dravet syndrome and Lennox-Gastaut syndrome; assay: Principal component analysis of QOLCE survey data pooled from three randomised controlled clinical trials; assay type: in vivo, human
From the text: As described in Example 1 above PCA is a useful tool to scrutinise data which have several variables. A similar analysis was undertaken on the data produced using data pooled from three randomised controlled clinical trials on children and young adults with treatment resistant epilepsy associated with Dravet syndrome (one trial) and Lennox-Gastaut syndrome (LGS) (2 trials).
In the two placebo-controlled studies of CBD as a treatment for seizures associated with LGS, cannabidiol (CBD) was used as add-on treatment in patients who were defined as treatment-resistant. Patients had previously tried and stopped using a median of 6 AEDs and were being maintained on a median of 3 AEDs.
as §5, with “The first” for “This”, “The study aimed to determine the efficacy, safety and tolerability of 20 mg/kg/day cannabidiol compared with placebo.” left out
The Quality of Life in Childhood Epilepsy (QOLCE) survey was used to measure multiple QOL domains. […] The QOLCE questionnaire assessed 91 items divided into five sub-domains: physical function; cognitive function; emotional well-being; social function and behaviour. General health was also recorded.

Structure (SMILES): C=C(C)[C@@H]1CCC(C)=C[C@H]1c1c(O)cc(CCCCC)cc1O [CBD, Cannabidiol]
- areas where improvement was observed without an improvement of seizures ([1]; bottom right area of the biplot): control/helplessness and stigma item
- areas associated with quality of life with improvements (right of the zero F1 axis) ([1]; open label study, 12 weeks, 5 to 50 mg/kg/day): attention and concentration; QOL item; energy/fatigue; control/helplessness and stigma item
- QOL domains with a significant increase above baseline ([2]; Lennox-Gastaut syndrome): memory and language
- domains with a decrease in quality of life ([2]; Lennox-Gastaut syndrome): no domains where there was a decrease in quality of life
- Biostatistical analysis of QOL subscale score versus placebo ([2]; QOL subscale: Anxiety): ↔
- Biostatistical analysis of QOL subscale score versus placebo ([2]; QOL subscale: Attention / concentration): ↔
- Biostatistical analysis of QOL subscale score versus placebo ([2]; QOL subscale: Behaviour): ↔
- Biostatistical analysis of QOL subscale score versus placebo ([2]; QOL subscale: Control / helplessness): ↔
- Biostatistical analysis of QOL subscale score versus placebo ([2]; QOL subscale: Depression): ↔
- Biostatistical analysis of QOL subscale score versus placebo ([2]; QOL subscale: Energy/fatigue): ↔
- Biostatistical analysis of QOL subscale score versus placebo ([2]; QOL subscale: General health): ↔
- Biostatistical analysis of QOL subscale score versus placebo ([2]; QOL subscale: Language): ↑*
- Biostatistical analysis of QOL subscale score versus placebo ([2]; QOL subscale: Memory): ↑*
- Biostatistical analysis of QOL subscale score versus placebo ([2]; QOL subscale: Other cognitive): ↑*
- Biostatistical analysis of QOL subscale score versus placebo ([2]; QOL subscale: Physical restriction): ↔
- Biostatistical analysis of QOL subscale score versus placebo ([2]; QOL subscale: Self-esteem): ↔
- Biostatistical analysis of QOL subscale score versus placebo ([2]; QOL subscale: Social activities): ↔
- Biostatistical analysis of QOL subscale score versus placebo ([2]; QOL subscale: Social interaction): ↑ (a difference of greater than 10 points between medians (indicated by t))
- Biostatistical analysis of QOL subscale score versus placebo ([2]; QOL subscale: Stigma item): ↔
- QOLCE areas with improvements [3]: energy/fatigue; memory; other cognitive functions; control/helplessness; social interactions; behaviour and global quality of life
- patients with a positive response (slightly improved; much improved or very much improved) ([4]; of the 39 patients for which data were recorded): 34
- QOL measure: Very much improved ([4]; patient 245-01, SNAP25, end of study period): ✓
- QOL measure: Very much improved ([4]; patient 245-03, FIRES, end of study period): ✓
- QOL measure: Much improved ([4]; patient 245-06, DUP15Q, end of study period): ✓
- QOL measure: Very much improved ([4]; patient 245-08, CDKL5, end of study period): ✓
- QOL measure: Very much improved ([4]; patient 245-11, CDKL5, end of study period): ✓
- QOL measure: Very much improved ([4]; patient 245-12, Aicardi, end of study period): ✓
- QOL measure: Much improved ([4]; patient 245-28, Aicardi, end of study period): ✓
- QOL measure: Much improved ([4]; patient 245-32, DUP15Q, end of study period): ✓
- QOL measure: Very much improved ([4]; patient 245-37, CDKL5, end of study period): ✓
- QOL measure: Slightly improved ([4]; patient 245-38, CDKL5, end of study period): ✓
- QOL measure: Much improved ([4]; patient 245-40, DUP15Q, end of study period): ✓
- QOL measure: Much improved ([4]; patient 245-42, DUP15Q, end of study period): ✓
- QOL measure: Slightly improved ([4]; patient 245-43, DUP15Q, end of study period): ✓
- QOL measure: Slightly improved ([4]; patient 245-45, CDKL5, end of study period): ✓
- QOL measure: Very much improved ([4]; patient 245-47, CDKL5, end of study period): ✓
- QOL measure: Very much improved ([4]; patient 245-48, CDKL5, end of study period): ✓
- QOL measure: Slightly worse ([4]; patient 245-56, CDKL5, end of study period): ✓
- QOL measure: Much improved ([4]; patient 245-57, Aicardi, end of study period): ✓
- QOL measure: Much improved ([4]; patient FIL-01, Aicardi, end of study period): ✓
- QOL measure: Very much improved ([4]; patient FIL-09, Doose, end of study period): ✓
- QOL measure: Much improved ([4]; patient FIL-14, Doose, end of study period): ✓
- QOL measure: Slightly worse ([4]; patient FIL-25, Aicardi, end of study period): ✓
- QOL measure: No change ([4]; patient FLAM-25, Tuberous sclerosis, end of study period): ✓
- QOL measure: Very much improved ([4]; patient LCH-04, Aicardi, end of study period): ✓
- QOL measure: No change ([4]; patient LCH-08, Aicardi, end of study period): ✓
- QOL measure: Very much improved ([4]; patient LCH-12, Aicardi, end of study period): ✓
- QOL measure: Very much improved ([4]; patient LCH-18, FIRES, end of study period): ✓
- QOL measure: Very much improved ([4]; patient LCH-21, CDKL5, end of study period): ✓
- QOL measure: Very much improved ([4]; patient LCH-22, Tuberous sclerosis, end of study period): ✓
- QOL measure: Much worse ([4]; patient MAR-E1, FIRES, end of study period): ✓
- QOL measure: Very much improved ([4]; patient MAR-E2, FIRES, end of study period): ✓
- QOL measure: Very much improved ([4]; patient PAT-10, Aicardi, end of study period): ✓
- QOL measure: Very much improved ([4]; patient PAT-11, Aicardi, end of study period): ✓
- QOL measure: Very much improved ([4]; patient PAT-21, Aicardi, end of study period): ✓
- QOL measure: Much improved ([4]; patient PAT-26, Aicardi, end of study period): ✓
- QOL measure: Much improved ([4]; patient WIL-02, Sturge Weber, end of study period): ✓
- QOL measure: Much improved ([4]; patient WIL-05, Doose, end of study period): ✓
- QOL measure: Much improved ([4]; patient WIL-09, CDKL5, end of study period): ✓
- QOL measure: Much improved ([4]; patient WIL-10, Angelman, end of study period): ✓
- quality of life in patients with additional epilepsy syndromes ([4]; tuberous sclerosis, CDKL5, Sturge Weber, Doose, Angelman, SNAP25, FIRES, DUP15Q, Aicardi): observable improvement in quality of life
- cognitive performances of rats exhibiting spontaneous recurrent seizures [5]: restore the deteriorated cognitive performances
- seizure ratio of rats exhibiting spontaneous recurrent seizures [5]: improved the seizure ratio
- areas of QOL improved despite no improvement in seizure burden [6]: memory; language; control/helplessness; stigma item and cognition
- areas associated with quality of life with improvements ([6]; 10 or 20 mg/kg/day): quality of life item; general health; social interactions; social activities; attention/concentration; overall quality of life; memory; language; control/helplessness; stigma item and cognition

— US20220226257A1, “USE OF CANNABINOIDS IN THE TREATMENT OF COM[…] EPILEPSY” (GW Research Limited, priority 2019, published 2022)
